Data taken from ChEMBL document CHEMBL1201862, “PubChem BioAssay data set” (2004).
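Protocol summary: plate cells (96-well), add compound at 5 concentrations, incubate 48 h, interpolate endpoints linearly. Abbreviation: GI50, concentration required for 50% inhibition of growth.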 The source made the active and inactive calls. Rule as the data show it: active = GI50 up to about 1.1 µM and inactive = higher.

Assays:
Assay in all cases: DTP human tumour cell line panel, 48 h
[1] = test system: UACC-257
[2] = test system: CCRF-CEM
[3] = test system: SR
[4] = test system: COLO 205
[5] = test system: SNB-19
[6] = test system: A498
[7] = test system: LOX IMVI
[8] = test system: SF-268
[9] = test system: M14
[10] = test system: OVCAR-5
[11] = test system: NCI-H522
[12] = test system: HT-29
[13] = test system: MDA-N
[14] = test system: KM12
[15] = test system: T47D
[16] = test system: IGROV-1
[17] = test system: SK-OV-3
[18] = test system: SF-295
[19] = test system: SK-MEL-2
[20] = test system: Malme-3M

Row | Compound | GI50 [1] | GI50 [2] | GI50 [3] | GI50 [4] | GI50 [5] | GI50 [6] | GI50 [7] | GI50 [8] | GI50 [9] | GI50 [10] | GI50 [11] | GI50 [12] | GI50 [13] | GI50 [14] | GI50 [15] | GI50 [16] | GI50 [17] | GI50 [18] | GI50 [19] | GI50 [20]
1 | O=C(Nn1c(-c2ccccc2)nc2ccccc2c1=O)c1cccc([N+](=O)[O-])c1 | > 100 µM (inactive) | 52.5 µM (inactive) | 47.2 µM (inactive) | 54.3 µM (inactive) | 61.1 µM (inactive) | 48.9 µM (inactive) | > 100 µM (inactive) | > 100 µM (inactive) | > 100 µM (inactive) | > 100 µM (inactive) | 67 µM (inactive) | 79.8 µM (inactive) | > 100 µM (inactive) | > 100 µM (inactive) | < 0.01 µM (active) | > 100 µM (inactive) | > 100 µM (inactive) | – | – | –
2 | CC(=O)Nc1ccc2nc(N)n[n+]([O-])c2c1 | > 100 µM (inactive) | > 100 µM (inactive) | > 100 µM (inactive) | > 100 µM (inactive) | > 100 µM (inactive) | > 100 µM (inactive) | > 100 µM (inactive) | > 100 µM (inactive) | > 100 µM (inactive) | > 100 µM (inactive) | > 100 µM (inactive) | > 100 µM (inactive) | > 100 µM (inactive) | > 100 µM (inactive) | 79.8 µM (inactive) | > 100 µM (inactive) | > 100 µM (inactive) | > 100 µM (inactive) | > 100 µM (inactive) | –
3 | O=C(CC(=O)N(C(=O)c1ccccc1)c1ccc(Cl)cc1)N/N=C\c1cc(/N=N/c2ccccc2Cl)ccc1O | – | 25.1 µM (inactive) | 17.9 µM (inactive) | > 100 µM (inactive) | 18.2 µM (inactive) | 31.3 µM (inactive) | > 100 µM (inactive) | 47.1 µM (inactive) | > 100 µM (inactive) | > 100 µM (inactive) | – | > 100 µM (inactive) | > 100 µM (inactive) | 26.3 µM (inactive) | 51.6 µM (inactive) | > 100 µM (inactive) | 52.1 µM (inactive) | 29.9 µM (inactive) | – | > 100 µM (inactive)
4 | COc1cc(/C=C2\N=C(c3ccccc3)N(/N=C/c3cc4cc(C)ccc4nc3Cl)C2=O)cc(OC)c1OC | 46.5 µM (inactive) | – | 19.4 µM (inactive) | 24.5 µM (inactive) | 64.7 µM (inactive) | 28.1 µM (inactive) | 32.1 µM (inactive) | 35.6 µM (inactive) | 39.4 µM (inactive) | > 100 µM (inactive) | – | 38.4 µM (inactive) | 21 µM (inactive) | 31.8 µM (inactive) | 18 µM (inactive) | 33.3 µM (inactive) | 59.8 µM (inactive) | 44.2 µM (inactive) | 17.9 µM (inactive) | –
5 | CN1C(NN)=NS(=O)(=O)c2ccccc21 | > 100 µM (inactive) | > 100 µM (inactive) | 8.51 µM (inactive) | > 100 µM (inactive) | > 100 µM (inactive) | > 100 µM (inactive) | > 100 µM (inactive) | > 100 µM (inactive) | > 100 µM (inactive) | > 100 µM (inactive) | > 100 µM (inactive) | > 100 µM (inactive) | > 100 µM (inactive) | > 100 µM (inactive) | > 100 µM (inactive) | > 100 µM (inactive) | > 100 µM (inactive) | > 100 µM (inactive) | > 100 µM (inactive) | –
6 | Cc1ccc2nc(Cl)c(/C=N/N3C(=O)/C(=C/c4ccc(N(C)C)cc4)N=C3c3ccccc3)cc2c1 | 80.2 µM (inactive) | 29.9 µM (inactive) | 32.6 µM (inactive) | 51.1 µM (inactive) | > 100 µM (inactive) | 43.8 µM (inactive) | 31.5 µM (inactive) | 37.2 µM (inactive) | 47.8 µM (inactive) | > 100 µM (inactive) | – | 63.7 µM (inactive) | 29.1 µM (inactive) | 40.7 µM (inactive) | 43.4 µM (inactive) | 29 µM (inactive) | > 100 µM (inactive) | 29.9 µM (inactive) | 21.9 µM (inactive) | –
7 | COc1ccc(CC2C(=O)NC(C)C(=O)N(C)C3Cc4ccc(cc4)Oc4cc(ccc4O)CC(C(=O)NC(C)C(=O)NC(C)C(=O)N2C)N(C)C3=O)cc1 (centres undefined) | 0.0175 µM (active) | 0.0175 µM (active) | < 0.0001 µM (active) | 0.0175 µM (active) | – | 0.0175 µM (active) | 0.0409 µM (active) | – | 0.0027 µM (active) | – | – | 0.0355 µM (active) | < 0.0001 µM (active) | – | < 0.0001 µM (active) | 0.0175 µM (active) | 0.0175 µM (active) | – | – | 0.0175 µM (active)
8 | O=C(O)c1ccccn1 [2-PICOLINIC ACID] | > 100 µM (inactive) | > 100 µM (inactive) | > 100 µM (inactive) | > 100 µM (inactive) | > 100 µM (inactive) | > 100 µM (inactive) | – | > 100 µM (inactive) | > 100 µM (inactive) | > 100 µM (inactive) | – | > 100 µM (inactive) | > 100 µM (inactive) | > 100 µM (inactive) | > 100 µM (inactive) | > 100 µM (inactive) | – | > 100 µM (inactive) | > 100 µM (inactive) | –
9 | CC(C)(C)C(=O)C(N)C(=O)C(C)(C)C | > 100 µM (inactive) | > 100 µM (inactive) | > 100 µM (inactive) | > 100 µM (inactive) | > 100 µM (inactive) | – | > 100 µM (inactive) | > 100 µM (inactive) | > 100 µM (inactive) | > 100 µM (inactive) | > 100 µM (inactive) | – | > 100 µM (inactive) | > 100 µM (inactive) | > 100 µM (inactive) | – | > 100 µM (inactive) | > 100 µM (inactive) | > 100 µM (inactive) | > 100 µM (inactive)
10 | c1cc2c(cc1NC1=NCCO1)CCCC2 | 3.77 µM (inactive) | 2.72 µM (inactive) | – | 1.84 µM (inactive) | 21.7 µM (inactive) | 3.76 µM (inactive) | 3.13 µM (inactive) | 5.56 µM (inactive) | 2.88 µM (inactive) | 6.07 µM (inactive) | 3.52 µM (inactive) | 2.62 µM (inactive) | 1.41 µM (inactive) | 2.77 µM (inactive) | 10.6 µM (inactive) | 4.37 µM (inactive) | 4.38 µM (inactive) | 4.02 µM (inactive) | 2.97 µM (inactive) | 6.7 µM (inactive)
11 | CCCCn1c(C)c2c(c1C)C(=O)N(CC(O)CN1CCc3ccccc3C1)C2=O (centres undefined) | 33.4 µM (inactive) | 69.8 µM (inactive) | – | 37.8 µM (inactive) | > 100 µM (inactive) | 29.8 µM (inactive) | 49.7 µM (inactive) | > 100 µM (inactive) | 40.1 µM (inactive) | > 100 µM (inactive) | > 100 µM (inactive) | 37.8 µM (inactive) | 70 µM (inactive) | 57 µM (inactive) | 35.6 µM (inactive) | > 100 µM (inactive) | > 100 µM (inactive) | 42.4 µM (inactive) | 0.292 µM (active) | 93.3 µM (inactive)
12 | COc1cc2c(cc1OC)C(=O)/C(=C/c1cc(Cl)cc(Cl)c1)C2 | 26 µM (inactive) | 2.07 µM (inactive) | – | 6.21 µM (inactive) | > 26.4 µM (inactive) | 17 µM (inactive) | 4.24 µM (inactive) | 21.4 µM (inactive) | 4.18 µM (inactive) | > 34.1 µM (inactive) | 2.04 µM (inactive) | 2.59 µM (inactive) | 1.57 µM (inactive) | 1.38 µM (inactive) | 7.4 µM (inactive) | 2.65 µM (inactive) | – | 2.49 µM (inactive) | 23.5 µM (inactive) | 8.51 µM (inactive)
13 | COc1cc2c(cc1OC)CC(N=[N+]=[N-])c1cc(OC)c(OC)cc1/C=C\2 (centres undefined) | 46 µM (inactive) | – | > 100 µM (inactive) | 37.4 µM (inactive) | 34 µM (inactive) | > 100 µM (inactive) | 40.6 µM (inactive) | 51.8 µM (inactive) | 24.2 µM (inactive) | > 100 µM (inactive) | 50.9 µM (inactive) | 44.5 µM (inactive) | 5.75 µM (inactive) | 30.2 µM (inactive) | 75 µM (inactive) | 50.9 µM (inactive) | 38.5 µM (inactive) | 31.8 µM (inactive) | 39.5 µM (inactive) | –
14 | O=C(c1cccnc1)N1N=C(c2ccc3c(c2)OCO3)CC1(O)c1cc(F)c(Cl)cc1Cl (centres undefined) | 21.1 µM (inactive) | 19.1 µM (inactive) | 14.7 µM (inactive) | 15.1 µM (inactive) | 32.6 µM (inactive) | – | 16.4 µM (inactive) | 19.9 µM (inactive) | 31.8 µM (inactive) | 22.3 µM (inactive) | 17 µM (inactive) | 17.7 µM (inactive) | 29.3 µM (inactive) | 26.9 µM (inactive) | 3.59 µM (inactive) | 11.4 µM (inactive) | 27.9 µM (inactive) | 19.1 µM (inactive) | 20.7 µM (inactive) | 23.4 µM (inactive)
15 | CC(=O)O[C@H]1C(=O)[C@@]2(C)[C@H]([C@H](OC(=O)c3ccccc3)[C@]3(O)C[C@H](OC(=O)[C@H](O)[C@@H](NC(=O)c4ccco4)c4ccccc4)C(C)=C1C3(C)C)[C@]1(OC(C)=O)CO[C@@H]1C[C@@H]2O | – | < 0.00125 µM (active) | < 0.00125 µM (active) | < 0.00125 µM (active) | 0.00134 µM (active) | 0.0141 µM (active) | < 0.00125 µM (active) | 0.00162 µM (active) | < 0.00125 µM (active) | < 0.00125 µM (active) | < 0.00125 µM (active) | < 0.00125 µM (active) | < 0.00125 µM (active) | < 0.00125 µM (active) | < 0.00125 µM (active) | 0.0019 µM (active) | < 0.00125 µM (active) | 0.00624 µM (active) | < 0.00125 µM (active) | –
